# According to patent US9279107B2, “Simplified basic media for human pluripotent cell culture” (WISCONSIN ALUMNI RESEARCH FOUNDATION, priority 2010, dated 2016):
# Assays:
# foreskin cells [1] = experiment: Reprogramming of foreskin fibroblasts to iPS cells; format: cell-based, human
# Method: Available reprogramming protocols include incubation of the cells in FBS in the first several days after viral transduction or electroporation, prior to switching the cells to UM100 (U.S. Pat. No. 7,439,064, incorporated herein as if set forth in its entirety) or CM. The simplified media described in previous Examples were tested for their ability to support reprogramming.
# To determine if DF5S-based media can be used for viral-free iPS cell derivation, foreskin cells were reprogrammed using a viral-free episomal vector, as described in Yu et al., Science 324:797 (2009), incorporated herein by reference as if set forth in its entirety, at hypoxic conditions (O5C10).
# Plasmid combinations #6 and #19 were used for the reprogramming. In order to enhance the plasmid entry into the nucleus, ENBA mRNA was electroporated along with plasmid DNA. Around one million cells were transferred onto two 6-well plates in DF5SFeC for 5 days. Medium was then switched to DF5SFe for another 18-25 days. Cells of some of the wells were passaged for a second time using a 1:6 ratio at different time points.
# human fibroblasts = experiment: Reprogramming efficiency of human fibroblasts in E8-based medium; format: cell-based; conditions: E8 versus MEF feeder cells or TeSR; butyrate 100 μM with or without TGF-β
# H1 cells [2] = experiment: Cloning efficiency of H1 cells; format: cell-based, human
# Method: FIG. 2 A-F illustrate optimization of human ES cell and iPS cell culture conditions with DF5S. […] Cell survival was examined at 24 hours and 124 hours. […] DF5S trFe indicates DF5S media to which holotransferrin was added. FIG. 2E illustrates the cloning efficiency of H1 cells cultured in various media in the presence of HA100 (10 μM, 24 hours), blebbistatin (10 μM, 4 hours), or Y27632 (10 μM, 24 hours), compared to cloning efficiency in the absence of these factors (control). Asterisks indicate p<0.05. FIG. 2F illustrates cloning efficiency of H1 cells in conditioned medium (CM), CM with ROCK inhibitor (HA100), TeSR with ROCK inhibitor, and E8 with ROCK inhibitor in normoxic (dark gray bars) or hypoxic (light gray bars) conditions. Error bars indicate the standard error of the mean; asterisks indicate p<0.05.
# To determine cloning efficiency at various oxygen and CO2 concentrations, 500 cells were seeded into each well. Even at low oxygen, cloning efficiency was too low (<2%) to determine effects of various conditions on cloning. HA100, a ROCK inhibitor known to increase cloning efficiency, was used to increase cloning efficiency for testing oxygen and CO2 concentrations. Conditioned medium (CM), known to be the best medium for cloning, was used as control.
# The cells maintained a normal karyotype after more than 25 passages.
# iPS cells = experiment: Cloning efficiency of iPS cells; format: cell-based, human; conditions: about 500 cells per well, in the presence of HA100, DF5S-based media versus TeSR or CM
# Method: To determine how DF5S affects cloning efficiency, two iPS cell lines were grown in DF5S and plated at cloning density (approximately 500 cells per 12-well plate well) in the presence of HA100. […] To identify such factor, individual TeSR™ components were added individually to DF5S and tested for effect on cloning efficiency.
# foreskin cells [3] = experiment: Foreskin cell growth in DF5SFe-based media; design: species or system human
# Method: To determine growth factors that can help primary foreskin cell growth, individual growth factors contained in FBS were tested. The FGF family of growth factors has several members, one or more of which is commonly used for fibroblast culture. DF5SFe contains 100 ng/ml zebrafish recombinant FGF2. Each FGF family member was tested for its ability to support foreskin cell growth. Foreskin cells were aliquoted into the well of culture plates and incubated for 24 hours in DF5SFe minus FGF. Individual FGF types were added at 100 ng/ml for 96 h.
# H1 ES cells [4] = experiment: Short term growth / proliferation after passaging; format: cell-based, human; conditions: for cell proliferation after passaging: factor added to DMEM/F12, NaHCO3, insulin and FGF, L-ascorbic acid 64 mg/L
# Method: (§1) Five-hundred micro liter of various test media was loaded into each well of 12-well plates prior to the addition of cells. Adherent pluripotent cells were dissociated with TrypLE (Invitrogen) for 5 minutes or until fully detached from the culture plates. TrypLE was neutralized by adding an equal volume of media to the culture. The cells were counted, washed, and resuspended in fresh media at a concentration of 300,000 to 1,000,000 cells/ml. Approximately 100 μl of this cell solution was added into each well of the 12-well plates and the cells were incubated at 37° C. with 5% O2 and 10% CO2. Cells were again dissociated at various time points using 0.4 ml TrypLE, which was subsequently neutralized with equal volumes of 10% FBS in DMEM. The cells were counted by flow cytometry. 5000 count bright beads were added to each sample as internal control (approximately 200 beads were counted for each sample). All experiments were performed in triplicates.
# TeSR medium contains six growth factors, in addition to those present in the basal medium, fibroblast growth factor (FGF), transforming growth factor beta (TGF-β), γ-aminobutyric acid (GABA), pipecolic acid, lithium chloride (LiCl), and insulin (Table 1). A basic nutrient medium (NM) was created containing all TeSR™ components with the exception of these six growth factors. About 2×10^5 H1 ES cells were dissociated and plated on Matrigel. The survival index was determined after 24 h. […] Thus, NM supplemented with FGF and Insulin supports human ES cell culture. Twelve different basal nutrient media supplemented as described above were able to support cell survival and growth (FIG. 1E).
# NM contains 11 nutritional components, i.e., DMEM/F12, trace elements B, trace elements C, L-ascorbic acid, thiamine, selenium, L-glutamine, BSA, BME, sodium bicarbonate (NaHCO3), and transferrin (Table 1). […]
# H1 cells grew faster in the DF5S medium compared to cells grown in TeSR™ (FIGS. 1C and 2A). […] To increase assay sensitivity only 5,000 cells were seeded in each well and analyzed for survival (24 h) and proliferation (124 h). […]
# H1 cells [5] = experiment: Extended passage of cells in simplified media; format: cell-based, human; conditions: DF5, or nutritional factor added individually to DF5
# H1 ES cells [6] = experiment: ES cell survival in mTeSR without insulin; format: cell-based, human; conditions: for cell survival: 30 ng/ml added at 0 hour; for cell survival, dosage response: low concentration (e.g., 3 ng/ml), 24 hours
# Method: Pluripotent cell survival assays were carried out as described in Example 1. Media tested included mTeSR and mTeSR […]. IGF1R is known to be activated by insulin, IGF1 and IGF2 (Nguyen et al., Reproduction 134:41-49 (2007)). Accordingly, the inventors designed and carried out experiments to test how IGF1 or IGF2 could affect ES cell survival. Individualized H1 ES cells were plated in mTeSR™ with or without insulin (Sigma). IGF1 (30 ng/ml) and IGF2 (30 ng/ml) were added to media at 0 hour. […] Dosage response assays were conducted to determine useful concentrations of IGF1, IGF2, and Long-IGF-1 (Sigma) in pluripotent cell maintenance medium. Individualized H1 ES cells were plated in mTeSR without insulin, IGF1, IGF2 and Long-IGF1 were added at 0 hour, and cell survival was measured after 24 hours.
# H1 ES cells [7] = experiment: ES cell proliferation after insulin replacement; format: cell-based, human; conditions: insulin replaced after 24 hours with 30 ng/ml; feeder-free culture
# Method: To determine whether IGF1 and IGF2 are sufficient to support ES cell proliferation in the absence of insulin, individualized H1 ES cells were plated onto Matrigel plates in TeSR (with insulin) for the first 24 hours. Then insulin was either removed or replaced with IGF1 (30 ng/ml) and IGF2 (30 ng/ml). Cell numbers were measured at specific time points, and the fold change in cell numbers was normalized to the cell counts at the time when insulin was first replaced.
# H1 ES cells [8] = experiment: Pluripotent cell survival assay (24 h survival index after dissociation); format: cell-based, human; conditions: basic nutrient medium NM with or without additions, H1 ES cells on Matrigel
# Method: as §1, with “triplicates. TeSR medium contains six growth factors, in addition to those present in the basal medium, fibroblast growth factor (FGF), transforming growth factor beta (TGF-β), γ-aminobutyric acid (GABA), pipecolic acid, lithium chloride (LiCl), and insulin (Table 1). A basic nutrient medium (NM) was created containing all TeSR™ components with the exception of these six growth factors. […] The survival index was determined after 24 h. […]” for “triplicates.”
# [9] = in E8, HA100 10 μM 24 h, blebbistatin 10 μM 4 h, Y27632 10 μM 24 h, versus control
molecule,measurement,setting,value
"CCCC(=O)[O-].[Na+] [Butyrate, sodium butyrate]",number of colonies during reprogramming,foreskin cells [1]; foreskin fibroblasts,did not increase the number of colonies
same,ratio of true iPS cell to non-iPS cell colonies,foreskin cells [1]; foreskin fibroblasts,improved the ratio of true iPS cell to non-iPS cell colonies significantly
same,reprogramming efficiency,foreskin cells [1]; reagent added to reprogramming media,improved reprogramming efficiency
same,reprogramming efficiency,human fibroblasts,further enhanced reprogramming efficiency
O=S(=O)(c1cccc2cnccc12)N1CCNCC1 [HA100],cloning efficiency,H1 cells [2]; [9],increased cloning efficiency
same,cloning efficiency,"H1 cells [2]; in conditioned medium (CM), at both O5C10 and O15C5, 500 cells per well",significantly improved cloning efficiency
"C[C@]12CCC(=O)C=C1CC[C@@H]1[C@@H]2[C@@H](O)C[C@@]2(C)[C@H]1CC[C@]2(O)C(=O)CO [Hydrocortisone, reference compound]",cloning efficiency,iPS cells,improved iPS cell cloning efficiency
same,foreskin cell growth,foreskin cells [3]; added to DF5SFe to replace FBS,improved cell growth significantly
O=C(O)[C@@H]1C[C@@H](O)CN1 [Hydroxyproline],cell proliferation after passaging,H1 ES cells [4],could partially substitute for L-ascorbic acid
O=C1O[C@H]([C@@H](O)CO)C(O)=C1O [L-ascorbic acid],cell proliferation after passaging,H1 ES cells [4],necessary for cell proliferation after passaging
C[C@@H](N)[C@H]1CC[C@H](C(=O)Nc2ccncc2)CC1 [Y27632],cloning efficiency,H1 cells [2]; [9],increased cloning efficiency
Cc1ccc2c(c1)C(=O)C1(O)CCN(c3ccccc3)C1=N2 (stereo not shown) [blebbistatin],cloning efficiency,H1 cells [2]; [9],increased cloning efficiency
[Se] [selenium],cell growth / proliferation through multiple passages,H1 cells [5],sufficient to support cell proliferation through multiple passages
FGF1: FGF family member growth factor,foreskin cell growth,foreskin cells [3]; individual FGF added at 100 ng/ml for 96 h to DF5SFe minus FGF,supported foreskin cell growth most effectively
IGF1: ligand of the IGF1R receptor,cell survival,H1 ES cells [6],rescued cell survival in the absence of insulin
same,"cell survival, dosage response",H1 ES cells [6],can support hES cell survival in the absence of insulin
same,cell proliferation,H1 ES cells [7],able to support cell proliferation
IGF2: ligand of the IGF1R receptor,cell survival,H1 ES cells [6],rescued cell survival in the absence of insulin
same,"cell survival, dosage response",H1 ES cells [6],can support hES cell survival in the absence of insulin
same,cell proliferation,H1 ES cells [7],able to support cell proliferation
holo-transferrin,cloning efficiency,"H1 cells [2]; H1 cells in DF5S medium, transferrin added",noticeable improvement of cloning efficiency
same,cloning efficiency,H1 cells [2]; [9],further increased
same,cloning efficiency,iPS cells,cloning efficiency comparable to that using TeSR™
insulin,cell survival after dissociation (survival index),H1 ES cells [8],cell survival similar to that observed with TeSR™
same,cell growth,"H1 ES cells [4]; added to NM, insulin 20 ug/ml, FGF2 100 ng/ml, 96 h, compared with TeSR",did not support cell growth
